The numbers were not newly measured in patent US12673027B2, “Method for the production of commercial nanoparticle and microparticle powders” (ICEUTICA PTY LTD., priority 2009, dated 2026), which cites them from elsewhere.

For the series the following is noted: absorption by the body.

For `Cc1cnc(NC(=O)C2=C(O)c3ccccc3S(=O)(=O)N2C)s1` [Meloxicam], the Tmax is 4 to 5 h.

Broadly, the Tmax is the time at which the peak concentration occurs.
